Test results published in patent US10772893B2, “2-(morpholin-4-yl)-1,7-naphthyridines” (BAYER PHARMA AKTIENGESELLSCHAFT, priority 2014, dated 2020).

The compounds below were run on HeLa cells (assay: Proliferation assay, crystal violet staining). Details: Homo sapiens, 96 h, read-out: Inhibition of HeLa cell proliferation, HeLa cells, 4 days incubation.

Compound	IC50 [nM]
O=S(=O)(c1ccccc1)c1cc(N2CCOCC2)nc2c(-c3ccn[nH]3)nccc12 [Example 198, 2-(morpholin-4-yl)-4-(phenylsulfonyl)-8-(1H-pyrazol-5-yl)-1,7-naphthyridine]	> 3000
CCS(=O)(=O)c1cc(N2CCOCC2)nc2c(-c3ccn[nH]3)nccc12 [Example 200, 4-(ethylsulfonyl)-2-(morpholin-4-yl)-8-(1H-pyrazol-5-yl)-1,7-naphthyridine]	1960
[O-][S+](c1ccccc1)c1cc(N2CCOCC2)nc2c(-c3ccn[nH]3)nccc12 (stereo not shown) [Example 201, 2-(morpholin-4-yl)-4-(phenylsulfinyl)-8-(1H-pyrazol-5-yl)-1,7-naphthyridine]	> 3000
C[S+]([O-])c1cc(N2CCOCC2)nc2c(-c3ccn[nH]3)nccc12 (stereo not shown) [Example 202, 4-(methylsulfinyl)-2-(morpholin-4-yl)-8-(1H-pyrazol-5-yl)-1,7-naphthyridine]	1530
C[C@@H]1COCCN1c1cc(C2CC[S+]([O-])CC2)c2ccnc(-c3ccn[nH]3)c2n1 (stereo partly drawn) [Example 203, 2-[(3R)-3-methylmorpholin-4-yl]-4-[1-oxidotetrahydro-2H-thiopyran-4-yl]-8-(1H-pyrazol-5-yl)-1,7-naphthyridine]	998
C[C@@H]1COCCN1c1cc(C2CCS(=O)(=O)CC2)c2ccnc(-c3ccn[nH]3)c2n1 [Example 204, 4-(1,1-dioxidotetrahydro-2H-thiopyran-4-yl)-2-[(3R)-3-methylmorpholin-4-yl]-8-(1H-pyrazol-5-yl)-1,7-naphthyridine]	568
COc1ccc(Sc2cc(N3CCOCC3)nc3c(-c4ccn[nH]4)nccc23)cc1 [Example 213, 4-[(4-methoxyphenyl)sulfanyl]-2-(morpholin-4-yl)-8-(1H-pyrazol-5-yl)-1,7-naphthyridine]	> 3000
Cc1cc(-c2cc(N3CCOCC3)nc3c(-c4ccn[nH]4)nccc23)n[nH]1 [Example 214, 4-(5-methyl-1H-pyrazol-3-yl)-2-(morpholin-4-yl)-8-(1H-pyrazol-5-yl)-1,7-naphthyridine]	> 3000
O=C1CCCN1c1cc(N2CCOCC2)nc2c(-c3ccn[nH]3)nccc12 [Example 215, 1-[2-(morpholin-4-yl)-8-(1H-pyrazol-5-yl)-1,7-naphthyridin-4-yl]pyrrolidin-2-one]	> 3000
Cc1ncccc1-c1cc(N2CCOC[C@H]2C)nc2c(-c3ccn[nH]3)nccc12 [Example 218, 2-[(3R)-3-methylmorpholin-4-yl]-4-(2-methylpyridin-3-yl)-8-(1H-pyrazol-5-yl)-1,7-naphthyridine]	300
CC(C)Oc1ncccc1-c1cc(N2CCOC[C@H]2C)nc2c(-c3ccn[nH]3)nccc12 [Example 219, 2-[(3R)-3-methylmorpholin-4-yl]-4-[2-(propan-2-yloxy)pyridin-3-yl]-8-(1H-pyrazol-5-yl)-1,7-naphthyridine]	2980
c1cc(-c2cc(N3CCOCC3)nc3c(-c4ccn[nH]4)nccc23)ccn1 [Example 221, 2-(morpholin-4-yl)-8-(1H-pyrazol-5-yl)-4-(pyridin-4-yl)-1,7-naphthyridine]	> 3000
COc1ccc(Sc2cc(N3CCOC[C@H]3C)nc3c(-c4ccn[nH]4)nccc23)cc1 [Example 222, 4-[(4-methoxyphenyl)sulfanyl]-2-[(3R)-3-methylmorpholin-4-yl]-8-(1H-pyrazol-5-yl)-1,7-naphthyridine]	975
COc1cnccc1-c1cc(N2CCOC[C@H]2C)nc2c(-c3ccn[nH]3)nccc12 [Example 227, 4-(3-methoxypyridin-4-yl)-2-[(3R)-3-methylmorpholin-4-yl]-8-(1H-pyrazol-5-yl)-1,7-naphthyridine]	1940
C[C@@H]1COCCN1c1cc(-c2cc(Cl)cnc2F)c2ccnc(-c3ccn[nH]3)c2n1 [Example 229, 4-(5-chloro-2-fluoropyridin-3-yl)-2-[(3R)-3-methylmorpholin-4-yl]-8-(1H-pyrazol-5-yl)-1,7-naphthyridine]	447
C[C@@H]1COCCN1c1cc(-c2ccncc2F)c2ccnc(-c3ccn[nH]3)c2n1 [Example 230, 4-(3-fluoropyridin-4-yl)-2-[(3R)-3-methylmorpholin-4-yl]-8-(1H-pyrazol-5-yl)-1,7-naphthyridine]	380
Cc1cc(-c2cc(N3CCOC[C@H]3C)nc3c(-c4ccn[nH]4)nccc23)cnc1C [Example 232, 4-(5,6-dimethylpyridin-3-yl)-2-[(3R)-3-methylmorpholin-4-yl]-8-(1H-pyrazol-5-yl)-1,7-naphthyridine]	341
Cc1ncc(-c2cc(N3CCOC[C@H]3C)nc3c(-c4ccn[nH]4)nccc23)cc1F [Example 233, 4-(5-fluoro-6-methylpyridin-3-yl)-2-[(3R)-3-methylmorpholin-4-yl]-8-(1H-pyrazol-5-yl)-1,7-naphthyridine]	180
Cc1cc(-c2cc(N3CCOC[C@H]3C)nc3c(-c4ccn[nH]4)nccc23)cs1 [Example 234, 2-[(3R)-3-methylmorpholin-4-yl]-4-(5-methylthiophen-3-yl)-8-(1H-pyrazol-5-yl)-1,7-naphthyridine]	1210

Compound	IC50 [nM]
COc1ccsc1-c1cc(N2CCOC[C@H]2C)nc2c(-c3ccn[nH]3)nccc12 [Example 235, 4-(3-methoxythiophen-2-yl)-2-[(3R)-3-methylmorpholin-4-yl]-8-(1H-pyrazol-5-yl)-1,7-naphthyridine]	950
C[C@@H]1COCCN1c1cc(-c2ccsc2Cl)c2ccnc(-c3ccn[nH]3)c2n1 [Example 236, 4-(2-chlorothiophen-3-yl)-2-[(3R)-3-methylmorpholin-4-yl]-8-(1H-pyrazol-5-yl)-1,7-naphthyridine]	792
C[C@@H]1COCCN1c1cc(-c2cncc3ccccc23)c2ccnc(-c3ccn[nH]3)c2n1 [Example 237, 4-(isoquinolin-4-yl)-2-[(3R)-3-methylmorpholin-4-yl]-8-(1H-pyrazol-5-yl)-1,7-naphthyridine]	528
C[C@@H]1COCCN1c1cc(-c2ccc(Cl)s2)c2ccnc(-c3ccn[nH]3)c2n1 [Example 238, 4-(5-chlorothiophen-2-yl)-2-[(3R)-3-methylmorpholin-4-yl]-8-(1H-pyrazol-5-yl)-1,7-naphthyridine]	1180
Cc1csc(-c2cc(N3CCOC[C@H]3C)nc3c(-c4ccn[nH]4)nccc23)c1 [Example 239, 2-[(3R)-3-methylmorpholin-4-yl]-4-(4-methylthiophen-2-yl)-8-(1H-pyrazol-5-yl)-1,7-naphthyridine]	1130
C[C@@H]1COCCN1c1cc(C2CCSCC2)c2ccnc(-c3ccn[nH]3)c2n1 [Example 241, 2-[(3R)-3-methylmorpholin-4-yl]-8-(1H-pyrazol-5-yl)-4-(tetrahydro-2H-thiopyran-4-yl)-1,7-naphthyridine]	171
C[C@@H]1COCCN1c1cc(C2=CCCN(C)C2)c2ccnc(-c3ccn[nH]3)c2n1 [Example 242, 2-[(3R)-3-methylmorpholin-4-yl]-4-(1-methyl-1,2,5,6-tetrahydropyridin-3-yl)-8-(1H-pyrazol-5-yl)-1,7-naphthyridine]	811
C[C@@H]1COCCN1c1cc(C2=CCN(C)CC2)c2ccnc(-c3ccn[nH]3)c2n1 [Example 243, 2-[(3R)-3-methylmorpholin-4-yl]-4-(1-methyl-1,2,3,6-tetrahydropyridin-4-yl)-8-(1H-pyrazol-5-yl)-1,7-naphthyridine]	360
C[C@@H]1COCCN1c1cc(C2=CCNCC2)c2ccnc(-c3ccn[nH]3)c2n1 [Example 245, 2-[(3R)-3-methylmorpholin-4-yl]-8-(1H-pyrazol-5-yl)-4-(1,2,3,6-tetrahydropyridin-4-yl)-1,7-naphthyridine]	343
C[C@@H]1COCCN1c1cc(-c2ccn(C3CCOCC3)n2)c2ccnc(-c3ccn[nH]3)c2n1 [Example 246, 2-[(3R)-3-methylmorpholin-4-yl]-8-(1H-pyrazol-5-yl)-4-[1-(tetrahydro-2H-pyran-4-yl)-1H-pyrazol-3-yl]-1,7-naphthyridine]	2840
C[C@@H]1COCCN1c1cc(-c2cnc(F)cc2F)c2ccnc(-c3ccn[nH]3)c2n1 [Example 247, 4-(4,6-difluoropyridin-3-yl)-2-[(3R)-3-methylmorpholin-4-yl]-8-(1H-pyrazol-5-yl)-1,7-naphthyridine]	228
C[C@@H]1COCCN1c1cc(-c2cnn(C)c2)c2ccnc(-c3ccn[nH]3)c2n1 [Example 248, 2-[(3R)-3-methylmorpholin-4-yl]-4-(1-methyl-1H-pyrazol-4-yl)-8-(1H-pyrazol-5-yl)-1,7-naphthyridine]	451
Cc1nn(C)cc1-c1cc(N2CCOC[C@H]2C)nc2c(-c3ccn[nH]3)nccc12 [Example 249, 4-(1,3-dimethyl-1H-pyrazol-4-yl)-2-[(3R)-3-methylmorpholin-4-yl]-8-(1H-pyrazol-5-yl)-1,7-naphthyridine]	409
Cc1c(-c2cc(N3CCOC[C@H]3C)nc3c(-c4ccn[nH]4)nccc23)cnn1C [Example 250, 4-(1,5-dimethyl-1H-pyrazol-4-yl)-2-[(3R)-3-methylmorpholin-4-yl]-8-(1H-pyrazol-5-yl)-1,7-naphthyridine]	116
C[C@@H]1COCCN1c1cc(C2CCNCC2)c2ccnc(-c3ccn[nH]3)c2n1 [Example 251, 2-[(3R)-3-methylmorpholin-4-yl]-4-(piperidin-4-yl)-8-(1H-pyrazol-5-yl)-1,7-naphthyridine]	800
C[C@@H]1COCCN1c1cc(-c2c[nH]nc2C(F)(F)F)c2ccnc(-c3ccn[nH]3)c2n1 [Example 252, 2-[(3R)-3-methylmorpholin-4-yl]-8-(1H-pyrazol-5-yl)-4-[3-(trifluoromethyl)-1H-pyrazol-4-yl]-1,7-naphthyridine]	222
C[C@@H]1COCCN1c1cc(-c2cnn(C3CCC3)c2)c2ccnc(-c3ccn[nH]3)c2n1 [Example 253, 4-(1-cyclobutyl-1H-pyrazol-4-yl)-2-[(3R)-3-methylmorpholin-4-yl]-8-(1H-pyrazol-5-yl)-1,7-naphthyridine]	558
C[C@@H]1COCCN1c1cc(-c2cnn(C3CC3)c2)c2ccnc(-c3ccn[nH]3)c2n1 [Example 254, 4-(1-cyclopropyl-1H-pyrazol-4-yl)-2-[(3R)-3-methylmorpholin-4-yl]-8-(1H-pyrazol-5-yl)-1,7-naphthyridine]	312
